# Assay results from ChEMBL document CHEMBL4043262, “Plasma-induced dimerization of phloridzin as a new class of anti-adipogenic agents” (Bioorg Med Chem Lett, 2017).
# Assays:
# [1] = target: T1, Pancreatic triacylglycerol lipase (Sus scrofa, UniProt P00591); assay: Inhibition of porcine pancreatic lipase using p-nitrophenyl butyrate as substrate pretreated for 15 mins followed by substrate addition measured after 15 mins by spectrophotometric method
# T1 sequence (P00591 whole entry): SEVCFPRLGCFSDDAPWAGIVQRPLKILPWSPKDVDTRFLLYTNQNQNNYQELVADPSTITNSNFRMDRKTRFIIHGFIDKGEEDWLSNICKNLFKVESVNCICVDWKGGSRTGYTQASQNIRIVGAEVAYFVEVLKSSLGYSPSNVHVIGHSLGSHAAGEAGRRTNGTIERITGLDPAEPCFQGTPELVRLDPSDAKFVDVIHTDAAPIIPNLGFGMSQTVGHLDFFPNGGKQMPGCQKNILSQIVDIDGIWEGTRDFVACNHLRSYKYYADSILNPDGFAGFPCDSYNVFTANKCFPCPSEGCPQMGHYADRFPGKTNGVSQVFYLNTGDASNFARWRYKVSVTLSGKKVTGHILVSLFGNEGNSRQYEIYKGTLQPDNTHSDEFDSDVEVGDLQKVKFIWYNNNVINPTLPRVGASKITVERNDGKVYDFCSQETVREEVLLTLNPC
# 3T3-L1 [2] = assay: Anti-adipogenic activity in mouse 3T3L1 cells assessed as reduction in lipid accumulation at 25 uM administered for 8 days measured post last dose by Oil Red O staining based assay relative to control; format: functional; parameters: scale not given: the % may be the effect or the level left
# 3T3-L1 [3] = assay: Anti-adipogenic activity in mouse 3T3L1 cells assessed as reduction in lipid accumulation at 50 uM administered for 8 days measured post last dose by Oil Red O staining based assay relative to control; format: functional; parameters: scale not given: the % may be the effect or the level left
# 3T3-L1 [4] = assay: Cytotoxicity against mouse 3T3L1 cells up to 48 hrs by MTT assay; format: cell-based; details: 3t3-l1, 48 h
# 3T3-L1 [5] = assay: Anti-adipogenic activity in mouse 3T3L1 cells assessed as reduction in lipid accumulation at 100 uM administered for 8 days measured post last dose by Oil Red O staining based assay relative to control; format: functional; parameters: scale not given: the % may be the effect or the level left
# [6] = target: T1, Pancreatic triacylglycerol lipase; assay: Inhibition of porcine pancreatic lipase using p-nitrophenyl butyrate as substrate pretreated for 15 mins followed by substrate addition measured after 15 mins in presence of plasma by spectrophotometric method
IC50 [1],IC50 [6],Structure (SMILES),Activity (3T3-L1 [2]),Activity (3T3-L1 [3]),Activity (3T3-L1 [4]),Activity (3T3-L1 [5])
14.7 µM,–,O=C(CCc1ccc(O)cc1)c1c(O)cc(O)c(Cc2c(O)cc(O[C@@H]3O[C@H](CO)[C@@H](O)[C@H](O)[C@H]3O)c(C(=O)CCc3ccc(O)cc3)c2O)c1O,–,–,Non-Toxic,–
50.4 µM,–,O=C(CCc1ccc(O)cc1)c1c(O)cc(O)cc1O [PHLORETIN],–,–,Non-Toxic,–
> 300 µM,68.3 µM,O=C(CCc1ccc(O)cc1)c1c(O)cc(O)cc1O[C@@H]1O[C@H](CO)[C@@H](O)[C@H](O)[C@H]1O [PHLORIZIN],–,–,Non-Toxic,–

# The next lines start with the compound.
Structure (SMILES),IC50 [1],IC50 [6],Activity (3T3-L1 [2]),Activity (3T3-L1 [3]),Activity (3T3-L1 [4]),Activity (3T3-L1 [5])
O=C(CCc1ccc(O)cc1)c1c(O)cc(O)c(Cc2c(O)cc(O)c(C(=O)CCc3ccc(O)cc3)c2O)c1O,5.2 µM,–,60.3%,45.7%,Non-Toxic,36.5%
O=C(CCc1ccc(O)cc1)c1c(O[C@@H]2O[C@H](CO)[C@@H](O)[C@H](O)[C@H]2O)cc(O)c(Cc2c(O)cc(O[C@@H]3O[C@H](CO)[C@@H](O)[C@H](O)[C@H]3O)c(C(=O)CCc3ccc(O)cc3)c2O)c1O,257 µM,–,–,–,Non-Toxic,–
